# Tests used:
# rice callus cells [1] = assay: Selection of transformed rice callus cells and plants, Agrobacterium method (vector pUb-OSASA1D); type: cell-based, rice (variety: Nihonbare)
# Method: Preparation of Agrobacterium bacterium was carried out in the same manner as in Example 3(4) using the recombinant vector pUb-OSASA1D mentioned in the above (1). Preparation of rice callus cells was carried out in the same manner as in Example 3(5). And, gene introduction into the rice callus cells was carried out in the same manner as in Example 3(6).
# The obtained calli as transformed with the recombinant vector were washed with sterilized water containing 500 mg/l carbenicillin, to remove the Agrobacterium bacterium. After removal of excess water, the calli (20 calli per petri dish, 500 calli in total) were transplanted to a solid medium as prepared by adding 30 g/l sucrose, 2 mg/l 2,4-PA, 500 mg/l carbenicillin, 2 g/l Gerite and 3×10^−4 M 5MT as a selective drug, to the inorganic salt composition of N6 medium. […]
# (§1) After one month of cultivation, the number of the transformed calli thus selected was counted. […]
# The transformed calli as selected by the above cultivation in view of their 5MT resistance were transplanted to a solid regeneration medium which was prepared by adding 30 g/l sucrose, 30 g/l sorbitol, 2 g/l casamino acid, 1 mg/l NAA, 2 mg/l BA, 4 g/l Gel lite and3×10^−4M 5MT to the inorganic salt composition of MS medium. […] The number of the transformed plants regenerated from the transformed calluses was counted. […]
# rice callus cells [2] = assay: Selection of transformed rice callus cells and plants, direct introduction using whiskers (vector pUBdD); type: cell-based, rice (variety: Nihonbare)
# Method: Ripe seeds of rice (variety: Nihonbare) were hulled, and the resulting seeds with coats were sterilized by immersion in a 70% ethanol solution for 60 seconds and then in a sodium hypochlorite solution containing about 1% effective chlorine for 6 minutes, followed by washing with sterilized water.
# The thus sterilized rice seeds were placed on a medium as prepared by adding 30 g/l sucrose, 2 mg/l 2,4-PA as a phytohormone and 8 g/l agar to the inorganic component composition of MS medium. Incubation of seeds was carried out at 28° C. for 45 days with irradiation with light at 2000 lx for 16 hours per day, to form callus. The formed calli were cut from the albumen of the seeds, and those calli having a size of 1 mm or less were obtained in an amount of 3 ml in term of PCV (Packed Cell Volume), with using a stainless steel sieve (mesh size: 1 mm).
# Separately, […] of potassium titanate whiskers (LS20, Titan Kogyo K.K.) was put into a 1.5-ml tube, and 0.5 ml of ethanol was added thereto. The mixture was allowed to stand overnight, and ethanol was evaporated completely to obtain sterilized whiskers. To this tube containing the whiskers was added 1 ml of sterilized water, followed by sufficient stirring. […]
# as §1
# [3] = 30 days on regeneration medium with selective drug (3×10^−4 M 5MT, or 50 mg/l hygromycin in control group)
smiles,measurement,setting,value
"Cc1ccc2[nH]cc(C[C@H](N)C(=O)O)c2c1 [Test Group, 5-methyltryptophan]",Transformed Callus Cells Selected,"rice callus cells [1]; 500 calli tested, one month on selective medium (3×10^−4 M 5MT, or 50 mg/l hygromycin in control group)",45
same,Transformed Plants Selected,rice callus cells [1]; [3],43
same,Transformed Callus Cells Selected,"rice callus cells [2]; 2000 divided cells tested, one month on selective medium (10^−4 M 5MT, or 50 mg/l hygromycin in control group)",102
same,Transformed Plants Selected,rice callus cells [2]; [3],85
